Patent publication US9840712B2, “CD133 aptamers for detection of cancer stem cells” (DEAKIN UNIVERSITY, priority 2012, dated 2017)
Like-named read-outs stand apart in the source and are kept apart here. In the oligonucleotide strings, read from the 5' end, every base follows the letter of its sugar. An asterisk marks phosphorothioate; unmarked linkages are phosphodiester. Other units and linkages are bracketed, terminal groups are in braces. A string of capitals states the bases alone. r = 2'-OH (RNA); f = 2'-fluoro

Assays:
[1] = target: T1, CD133 expressed on HT-29 cells (Homo sapiens, UniProt O43490); assay: Aptamer dissociation constant by flow cytometry, HT-29 cells; details: HT-29 cells (CD133-positive); binding at 37° C. for 30 min
T1 construct: determined using CD133 positive (HT-29 and Hep3B) and CD133 negative cell lines (T98G and HEK293T); host or cells: HT-29
T1 sequence (O43490 20-865): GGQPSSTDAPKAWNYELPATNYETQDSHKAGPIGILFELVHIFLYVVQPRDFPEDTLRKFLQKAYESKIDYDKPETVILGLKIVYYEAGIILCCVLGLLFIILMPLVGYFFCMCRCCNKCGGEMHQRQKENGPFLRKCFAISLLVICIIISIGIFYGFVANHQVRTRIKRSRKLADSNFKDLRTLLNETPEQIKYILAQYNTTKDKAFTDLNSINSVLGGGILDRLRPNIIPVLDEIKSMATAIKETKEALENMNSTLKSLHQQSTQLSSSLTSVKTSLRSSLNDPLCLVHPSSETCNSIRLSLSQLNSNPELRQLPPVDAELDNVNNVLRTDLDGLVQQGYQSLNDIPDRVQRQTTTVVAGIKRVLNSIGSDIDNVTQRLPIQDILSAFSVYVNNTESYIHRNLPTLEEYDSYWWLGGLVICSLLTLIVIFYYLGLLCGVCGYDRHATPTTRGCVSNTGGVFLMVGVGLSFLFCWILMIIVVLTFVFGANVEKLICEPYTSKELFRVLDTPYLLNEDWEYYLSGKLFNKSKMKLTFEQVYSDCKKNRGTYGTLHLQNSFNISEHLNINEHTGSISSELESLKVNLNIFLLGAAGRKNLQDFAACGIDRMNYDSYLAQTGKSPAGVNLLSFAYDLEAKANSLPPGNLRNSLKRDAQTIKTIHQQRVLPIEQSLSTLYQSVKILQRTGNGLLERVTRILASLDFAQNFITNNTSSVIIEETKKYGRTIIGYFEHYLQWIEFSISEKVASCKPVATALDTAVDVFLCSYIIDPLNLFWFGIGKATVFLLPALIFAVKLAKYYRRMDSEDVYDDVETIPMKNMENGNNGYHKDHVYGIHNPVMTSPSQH
Procedure: (§1) Cells were harvested at 80% confluence with trypsin digestion and resuspended in washing buffer (DPBS with 2.5 mM MgCl2) and enumerated. Following centrifugation (1000×g for 5 min), the cell pellet was resuspended in binding buffer (DPBS supplemented with 5 mM MgCl2, 0.1 mg/ml tRNA, 0.1 mg/ml salmon sperm DNA) and diluted to 1×10^6/mL.
(§2) The dissociation constant (Kd) of successful 2′-fluoropyrimidine RNA aptamer species to native CD133 expressed on the cell surface was determined using flow cytometry. […] The mean fluorescence intensity (MFI) of the unselected library was subtracted from that of the aptamer-target cell to generate the MFI of specific binding. The Kd for each aptamer was determined by Scatchard analysis according to the equation: [Bound aptamer]/[aptamer]=−(1/Kd)×[bound aptamer]+([T]tot/Kd) where [T]tot represents the total target concentration. […]
(§3) To generate the truncated aptamers, the sense and antisense DNA oligonucleotides of desired sequences were synthesised. […] The binding affinities of these two aptamers and a negative control aptamer was determined using CD133 positive (HT-29 and Hep3B) and CD133 negative cell lines (T98G and HEK293T). […]

[2] = target: T2, CD133 expressed on Hep3B cells (Homo sapiens, UniProt O43490); assay: Aptamer dissociation constant by flow cytometry, Hep3B cells; details: Hep3B cells (CD133-positive); binding at 37° C. for 30 min
T2 construct: determined using CD133 positive (HT-29 and Hep3B) and CD133 negative cell lines (T98G and HEK293T); host or cells: Hep3B
T2 sequence (O43490 20-865): T1 sequence (O43490 20-865)
Procedure: as §1, §2, §3

[3] = test system: CD133-negative HEK293T cells; assay: Aptamer dissociation constant by flow cytometry, HEK293T cells (specificity); parameters: species or system human; details: binding at 37° C. for 30 min
Procedure: as §1, §2, §3

[4] = test system: CD133-negative T98G cells; assay: Aptamer dissociation constant by flow cytometry, T98G cells (specificity); parameters: species or system human; details: binding at 37° C. for 30 min
Procedure: as §1, §2, §3

[5] = test system: colon cancer cells (HT29); details: 1 μM; for Tumoursphere formation after treatment: 3 days post-treatment

Compound: CD133-2-1: 19 mer 2′-F-pyrimidine RNA aptamer, 5′-CAGAACGUAUACUAUUCUG-3′ (SEQ ID NO:6) (fCrArGrArAfCrGfUrAfUrAfCfUrAfUfUfCfUrG; further chemistry not given here)
- Kd [1]: 145 nM
- Kd [2]: 52 nM
- Kd [3]: 1740 µM
- Kd [4]: 4.76 µM

Compound: CD133-1-2-2: 15 mer 2′-F-pyrimidine RNA aptamer, 5′-CC CUC CUA CAU AGG G-3′ (SEQ ID NO:1) (fCfCfCfUfCfCfUrAfCrAfUrArGrGrG; further chemistry not given here)
- Kd [1]: 82 nM
- Kd [2]: 32 nM
- Kd [3]: 120 µM
- Kd [4]: 275 µM

Compound: COc1cccc2c1C(=O)c1c(O)c3c(c(O)c1C2=O)C[C@@](O)(C(=O)CO)C[C@@H]3O[C@H]1C[C@H](N)[C@H](O)[C@H](C)O1 [Doxorubicin, doxorubicin]
- Tumoursphere formation after treatment ([5]; 10 cells/well): 5/5
- Tumoursphere formation after treatment ([5]; 50 cells/well): 5/5
- inhibition of tumoursphere formation (in words) ([5]; 100 cells/well): no effect
- Tumoursphere formation after treatment ([5]; 100 cells/well): 5/5
